Paper PMC11284340 (FASEB journal : official publication of the Federation of …, 2024)

How the values were obtained:
[1] = molecular target: T1, Drosophila insulin receptor kinase domain (D-IRK) (Drosophila melanogaster, UniProt P09208); assay: [γ-32P]-ATP phosphocellulose kinase assay at […]; type: biochemical; conditions: read-out: % inhibition at 10 μM
T1 sequence (P09208 1358-1672): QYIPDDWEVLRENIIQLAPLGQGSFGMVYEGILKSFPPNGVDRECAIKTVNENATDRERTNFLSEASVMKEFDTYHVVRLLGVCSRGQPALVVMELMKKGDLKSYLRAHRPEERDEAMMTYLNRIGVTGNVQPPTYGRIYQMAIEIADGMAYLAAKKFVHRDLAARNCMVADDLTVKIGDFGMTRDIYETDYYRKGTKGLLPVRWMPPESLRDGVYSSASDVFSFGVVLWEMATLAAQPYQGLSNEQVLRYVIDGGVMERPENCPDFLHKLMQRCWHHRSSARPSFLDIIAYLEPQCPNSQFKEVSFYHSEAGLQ

[2] = molecular target: T1, Drosophila insulin receptor kinase domain (D-IRK); assay: [γ-32P]-ATP phosphocellulose kinase assay; type: biochemical; conditions: read-out: % inhibition at 10 μM
[3] = substrate: Nc1ncnc2c1ncn2[C@@H]1O[C@H](COP(=O)(O)OP(=O)(O)OP(=O)(O)O)[C@@H](O)[C@H]1O; assay: continuous spectrophotometric coupled assay, Km; type: biochemical, Drosophila melanogaster; conditions: Mg2+ ATP-binding site

For `COc1cc2c(Nc3ccc(Br)cc3F)ncnc2cc1OCC1CCN(C)CC1` [Vandetanib], which inhibition at 10 µM [1] is on record?
The inhibition at 10 µM was about 70%.

For `CN[C@@H]1C[C@H]2O[C@@](C)([C@@H]1OC)n1c3ccccc3c3c4c(c5c6ccccc6n2c5c31)C(=O)NC4` [Staurosporine], which inhibition at 10 µM [2] is on record?
The inhibition at 10 µM was 98%.

B1: Drosophila insulin receptor kinase domain (D-IRK) (Drosophila melanogaster) (protein)
chain: T1 sequence (P09208 1358-1672)
B1 was tested. Which Km [3] did it give?
Its Km is 1350 ± 170 µM.
